Measurements: patent US11464854B2, “Methods and compositions relating to adjuvants” (Children's Medical Center Corporation, priority 2017, dated 2022)

How the values were obtained:
[1] = molecular target: T1, human TLR8 (Homo sapiens, UniProt Q9NR97); settings: HEK293 cells stably expressing human TLR8 (ref. 24); cited from earlier work
T1 construct: host or cells: HEK293 with NF-kB-responsive SEAP reporter
T1 sequence (Q9NR97 27-1041): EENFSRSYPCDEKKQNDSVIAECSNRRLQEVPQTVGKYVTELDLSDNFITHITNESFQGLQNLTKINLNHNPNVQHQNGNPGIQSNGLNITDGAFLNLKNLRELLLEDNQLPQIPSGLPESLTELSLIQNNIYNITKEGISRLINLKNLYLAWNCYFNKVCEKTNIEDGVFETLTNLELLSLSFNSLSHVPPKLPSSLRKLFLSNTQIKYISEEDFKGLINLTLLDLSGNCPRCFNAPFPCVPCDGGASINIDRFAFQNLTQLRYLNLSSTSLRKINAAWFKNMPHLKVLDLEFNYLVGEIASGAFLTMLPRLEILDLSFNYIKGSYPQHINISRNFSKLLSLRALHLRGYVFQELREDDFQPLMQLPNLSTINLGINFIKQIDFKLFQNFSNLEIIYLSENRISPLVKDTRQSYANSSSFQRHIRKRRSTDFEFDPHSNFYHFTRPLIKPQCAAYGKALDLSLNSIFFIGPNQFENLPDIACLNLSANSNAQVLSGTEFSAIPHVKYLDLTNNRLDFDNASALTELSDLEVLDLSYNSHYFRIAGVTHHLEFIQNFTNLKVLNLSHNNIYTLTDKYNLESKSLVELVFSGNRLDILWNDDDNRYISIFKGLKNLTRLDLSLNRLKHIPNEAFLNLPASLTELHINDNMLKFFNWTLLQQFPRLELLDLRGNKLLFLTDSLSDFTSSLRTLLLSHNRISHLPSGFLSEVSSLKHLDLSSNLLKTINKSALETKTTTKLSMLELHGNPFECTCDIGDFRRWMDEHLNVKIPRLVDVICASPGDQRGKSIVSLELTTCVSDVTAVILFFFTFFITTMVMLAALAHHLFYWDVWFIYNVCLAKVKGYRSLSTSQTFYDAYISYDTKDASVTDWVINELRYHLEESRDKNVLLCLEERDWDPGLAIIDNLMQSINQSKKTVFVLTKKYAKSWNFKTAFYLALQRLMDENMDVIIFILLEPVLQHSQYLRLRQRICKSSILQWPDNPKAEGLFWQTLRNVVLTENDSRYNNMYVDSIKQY

[2] = molecular target: T2, human TLR7 (Homo sapiens, UniProt Q9NYK1); settings: HEK293 cells stably expressing human TLR7 (ref. 24); cited from earlier work
T2 construct: host or cells: HEK293 with NF-kB-responsive SEAP reporter
T2 sequence (Q9NYK1 27-1049): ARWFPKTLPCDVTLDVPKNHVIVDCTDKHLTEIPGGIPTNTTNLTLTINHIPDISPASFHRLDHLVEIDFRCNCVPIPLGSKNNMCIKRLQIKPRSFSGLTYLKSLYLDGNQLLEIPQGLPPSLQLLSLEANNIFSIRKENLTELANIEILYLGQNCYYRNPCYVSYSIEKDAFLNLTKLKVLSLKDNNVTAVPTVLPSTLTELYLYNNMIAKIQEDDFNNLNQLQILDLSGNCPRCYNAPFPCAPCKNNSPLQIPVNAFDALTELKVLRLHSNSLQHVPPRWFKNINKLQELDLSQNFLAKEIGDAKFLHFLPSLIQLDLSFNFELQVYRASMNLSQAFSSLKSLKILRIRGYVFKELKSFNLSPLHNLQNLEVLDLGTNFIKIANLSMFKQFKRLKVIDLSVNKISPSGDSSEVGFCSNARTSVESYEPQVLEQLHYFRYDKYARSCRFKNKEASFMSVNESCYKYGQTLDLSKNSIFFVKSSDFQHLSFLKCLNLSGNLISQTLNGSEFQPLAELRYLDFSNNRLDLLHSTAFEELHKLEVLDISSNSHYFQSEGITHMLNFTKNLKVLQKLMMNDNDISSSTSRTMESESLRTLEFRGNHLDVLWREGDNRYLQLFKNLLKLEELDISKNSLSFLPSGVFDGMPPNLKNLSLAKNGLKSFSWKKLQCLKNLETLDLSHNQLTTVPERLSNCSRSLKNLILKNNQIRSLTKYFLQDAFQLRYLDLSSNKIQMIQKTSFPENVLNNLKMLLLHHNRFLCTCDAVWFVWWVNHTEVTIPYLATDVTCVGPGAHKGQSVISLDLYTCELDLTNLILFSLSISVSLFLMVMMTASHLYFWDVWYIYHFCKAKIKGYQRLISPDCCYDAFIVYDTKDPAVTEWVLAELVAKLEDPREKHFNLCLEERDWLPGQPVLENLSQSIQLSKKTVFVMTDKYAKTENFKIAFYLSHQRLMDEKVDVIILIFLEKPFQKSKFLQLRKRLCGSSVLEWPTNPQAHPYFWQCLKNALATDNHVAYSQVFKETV

[3] = system: PnPS-specific B cells; experiment: Pneumococcal polysaccharide-specific B cells (ELISpot); format: in vivo, rhesus macaques (Macaca mulatta); settings: control condition, adjuvant alone
Description: Characterization of pneumococcal polysaccharide-specific B cells. Rhesus macaque peripheral blood mononuclear cells (PBMCs) were labeled with anti-CD14-PE (clone M5E2), CD20-V450 (clone L27), CD27-PE.Cy7 (clone M-T271), CD4-FITC (clone SK3) Ab's (BD Biosciences). Sorting of CD14+ monocytes, CD20+CD27− naïve B cells, CD20+CD27+ memory B cells, and CD4+Th cells employed a FACSAria™ II cell sorter. Anti-pneumococcal B cells in peripheral blood were enumerated in sorted B cell populations. […] Secreted immunoglobulins were detected using horseradish peroxidase-conjugated goat-anti-rhesus immunoglobulin (Nordic Immunological Laboratories; Eindhoven, The Netherlands). Spots were developed using 3,3′,5,5′-Tetramethylbenzidine (TMB) (Mabtech, Mariemont; OH, USA) and visualized and counted using a series 5 ELISpot™ analyzer (Cellular Technology Limited, Shaker Heights; OH, USA). The fraction of pneumococcal polysaccharide-specific B cells was quantified as the ratio of the spots detected in polysaccharide-coated wells to spots detected in immunoglobulin-coated wells, after correction for dilution.

In the case of `CCCCCCCCCCCCCCCCCC(=O)NCCCCOn1c(CCCC)nc2c(N)nc3ccccc3c21` [3M-052, N-[4-[(4-amino-2-butyl-1H-imidazo[4,5-c]quinolin-1-yl)oxy]butyl]octadecanamide], the “agonist activity, human TLR8” value [1] is given as “Dual agonist activity”, the “agonist activity, human TLR7” value [2] is given as “Dual agonist activity” and the “non-specific polysaccharide in vitro activation of B cells” value [3] is given as no more than 1.0%.
